# Data reported in paper PMC2805098 (Biochemistry, 2009).
# Several values for one entry are separate records, joined by “and”; a condition that tells them apart may be missing. Identical values can stand only once. Like-named read-outs stand apart in the source and are kept apart here.
# Tests used:
# [1] = tested on: wild-type MTHFR; settings: 25 °C, cited from earlier work
# [2] = molecular target: T1, Phe223Ala MTHFR (Escherichia coli, UniProt P0AEZ1, F223A); assay: NADH-CH2-H4folate oxidoreductase assay, steady-state
# [3] = molecular target: T1, Phe223Ala MTHFR; assay: Oxidative half-reaction with CH2-H4folate, stopped-flow; type: biochemical
# [4] = molecular target: T2, Phe223Leu MTHFR (Escherichia coli, UniProt P0AEZ1, F223L); assay: as above; type: biochemical
# [5] = molecular target: T2, Phe223Leu MTHFR; assay: NADH-CH2-H4folate oxidoreductase assay, steady-state; type: biochemical
# [6] = tested on: wild-type MTHFR; settings: 25 °C, pH 7.2, cited from earlier work
# [7] = molecular target: T2, Phe223Leu MTHFR; assay: Reaction of reduced enzyme with menadione, stopped-flow; type: biochemical; settings: […] μM menadione, within dead time of the instrument, data not shown
# [8] = molecular target: T1, Phe223Ala MTHFR; assay: as above; type: biochemical; settings: […] μM menadione, within dead time of the instrument, data not shown
# [9] = tested on: wild-type MTHFR; settings: 25 °C, pH 7.2, cited from earlier work; remark: listed apart in the source
# [10] = tested on: wild-type MTHFR; settings: 25 °C, pH 7.2; cited from earlier work
# [11] = molecular target: T2, Phe223Leu MTHFR; assay: NADH-menadione oxidoreductase assay, steady-state; type: biochemical
# [12] = molecular target: T2, Phe223Leu MTHFR; assay: Reductive half-reaction with NADH, stopped-flow; type: biochemical
# [13] = tested on: HpaC; settings: read-out: Km for NADH; 30 °C; cited from earlier work
# [14] = tested on: PheA2; settings: read-out: Km for NADH; 53 °C; cited from earlier work
# [15] = molecular target: T1, Phe223Ala MTHFR; assay: Reductive half-reaction with NADH, stopped-flow; type: biochemical
# [16] = molecular target: T1, Phe223Ala MTHFR; assay: NADH-menadione oxidoreductase assay, steady-state; type: biochemical; settings: […] μM menadione, varying NADH, 25 °C, pH 7.2
# [17] = molecular target: T2, Phe223Leu MTHFR; assay: NADPH binding; settings: data not shown
# [18] = 25 °C, pH 7.2, anaerobic, 450 nm
compound,measurement,setting,value
"Nc1nc2c(c(=O)[nH]1)N1CN(c3ccc(C(=O)N[C@@H](CCC(=O)O)C(=O)O)cc3)C[C@H]1CN2 [CH2-H4folate, 5,10-methylenetetrahydrofolate]","k5’, slow phase","[1]; pH 7.2, slow phase",10.3 ± 1.0 ^e s^−1
same,Kd,"[1]; read-out: Kd for CH2-H4folate, pH 7.2",11 ± 1 µM
same,decrease in kcat compared to wild-type,[2],4 fold
same,kcat,"[2]; anaerobic, 25 °C, pH 7.2",2.9 s⁻¹ and 2.9 ± 0.5 s⁻¹
same,theoretical turnover number calculated from the two half-reactions,"[2]; eq 9, slow phase of oxidation",4.0 s⁻¹
same,Kd,[3],500 ± 230 µM
same,change in standard free binding energy for CH2-H4folate,[3],2.3 kcal/mol
same,decrease in affinity for CH2-H4folate compared to wild-type,[3],45 fold
same,slower rate of oxidation compared to slow phase of wild-type,[3],2 fold
same,"k5’ maximal rate constant, slow phase","[3]; 25 °C, pH 7.2, anaerobic, slow phase (~16% of absorbance change)",4.5 ± 1.1 ^e s^−1
same,Kd,[4],9 ± 2 µM
same,increase in rate of oxidation compared to slow phase of wild-type enzyme,[4],3 fold
same,Ki,[5],160 ± 27 µM
same,CH2-H4folate concentration above which inhibition was seen,[5]; 1000 μM NADH,exceeding 100 μM
same,theoretical turnover number calculated from the two half-reactions,"[5]; eq 8, ping-pong bi-bi",17 s⁻¹
same,kcat,[6],10.4 ± 1.0 s⁻¹
same,Ki,[6]; read-out: Ki for CH2-H4folate,320 ± 25 µM
same,Km,[6]; read-out: Km for CH2-H4folate,0.5 ± 0.1 µM
CC1=CC(=O)c2ccccc2C1=O [menadione],time of reaction of reduced enzyme with menadione,[7],≤ 3 ms
same,time of reaction of reduced enzyme with menadione,[8],≤ 3 ms
NADH,k2’,[9],55 ± 6 s⁻¹
same,Kd,[9]; read-out: Kd for NADH,32 ± 5 µM
same,kcat,[10],55 ± 8.3 s⁻¹
same,increase in Km for NADH compared to wild-type,[11],7 fold
same,kcat,"[11]; […] μM menadione, varying NADH, 25 °C, pH 7.2",31 ± 4 s⁻¹
same,increase in Kd for NADH over wild-type enzyme,[12],14 fold
same,k2’ maximal observed rate constant for reduction,[12]; [18],35 ± 1 s⁻¹
same,Km,[13],36.8 µM
same,Km,[14],8.8 µM
same,k2’ maximal observed rate constant for reduction,[15]; [18],40 ± 2 s⁻¹
same,change in standard free binding energy for NADH,"[15]; at 298 K, from 40-fold increase in Kd",2.2 kcal/mol
same,kcat,[16],22 ± 4 s⁻¹
NADPH,ability to bind NADPH,[17],no ability to bind NADPH
